For data set [1], the target named is T1, urease from Canavalia ensiformis (Canavalia ensiformis, UniProt P07374).
T1 construct: purchased Sigma
Kind of data set: Urease inhibition assay (indophenol method, cell-free). The format is biochemical. As for the experimental part: A reaction mixture consisting of 25 µL of enzyme solution (urease from Canavalia ensiformis, Sigma, 1U final concentration) and 5 µL of test compounds dissolved in water (10–300.0 µM final concentration) was preincubated at 37 °C for 60 min in 96-well plates. Then, 55 µL of phosphate-buffered solution with […] of urea was added to each well and incubated at 37 °C for 10 min. The urease inhibitory activity was estimated by determining ammonia production using the indophenol method. Briefly, 45 µL of phenol reagent (1% w/v phenol and 0.005% w/v sodium nitroprusside) and 70 µL of alkali reagent (0.5% w/v NaOH and 0.1% active chloride NaClO) were added to each well. The absorbance was measured after 50 min at 630 nm using a MultiskanFS microplate reader (Thermo Scientific Inc., Beverly, MA, USA). All reactions were performed in triplicate in a final volume of 200 µL. The pH was maintained at 7.3–7.5 in all assays. DMSO 5% was used as a positive control.

For data set [2], the system named is normal rat cardiomyocyte H9c2 cells. The data set can be described thus: Cell viability assay (MTT), cytotoxic activity. It counts as cell-based. As for the experimental part: (§1) The HepG2 and H9c2 cells were cultured in DMEM medium (Biolot, St. Petersburg, Russia) containing 10% fetal bovine serum (Biolot, St. Petersburg, Russia) and 1% penicillin/streptomycin (Biolot, St. Petersburg, Russia) at 37 °C in a humidified atmosphere with 5% (v/v) CO2.
(§2) The HepG2 and H9c2 cells were seeded at concentrations of 5× 10^3 and 3×10^3 cell/well, respectively, and the experiments were started after 24 h. The compounds at concentrations up to 100 µM were added into the wells for 24 h, and the viability of the cells was measured by an MTT (3-(4,5-dimethylthiazol-2-yl)-2,5-diphenyltetrazolium bromide) assay, which was performed according to the manufacturer’s instructions (Sigma-Aldrich, Munich, Germany). All compounds were dissolved with DMSO so that the final concentration of DMSO in the cell culture was not more than 1%. Moreover, DMSO was used as a control. The absorbance of the resulting solution was measured at 570 nm with a microplate reader MultiscanFC (ThermoLabsystems Inc., Beverly, MA, USA). The results are presented as a percent of the control data and calculated IC50.

Data set [3] is described as follows: Cell viability assay (MTT), cytotoxic activity. It counts as cell-based, human. As to conditions: 24 h, MTT; for viability at 24 h, 10 µM / viability at 24 h, 100 µM: percent of control. On the procedure: as §1, §2
The subject of data set [4] is human hepatocarcinoma HepG2 cells. The data set can be described thus: Cell viability assay (MTT), cytotoxic activity. It counts as cell-based. To be noted: for decrease of HepG2 cell viability: 100 µM. On the procedure:
as §1, §2

Data set [5] deals with Staphylococcus aureus ATCC 21027. Kind of data set: Antimicrobial activity, inhibition of microbial growth (OD620). To be noted: Staphylococcus aureus. The format is cell-based. On the procedure:
(§3) The yeast-like fungi of Candida albicans KMM 455 and bacterial strains Staphylococcus aureus ATCC 21027 and Escherichia coli VKPM (B-7935) (Collection of Marine Microorganisms PIBOC FEB RAS) were cultured on solid-medium Mueller Hinton broth with agar (16.0 g/L) in a Petri dish at 37 °C for 24 h.
(§4) The assays were performed in 96-well microplates in appropriate Mueller Hinton broth. Each well contained 90 µL of bacterial or of a yeast-like fungi suspension (10^9 CFU/mL). Then, 10 µL of a compound diluted at concentrations ranging from 1.5 to 100.0 µM using a 2-fold dilution was added (DMSO concentration < 1%). Culture plates were incubated overnight at 37 °C, and the OD620 was measured using a Multiskan FS spectrophotometer (Thermo Scientific Inc., Beverly, MA, USA). The antibiotic gentamicin and antifungal agent nitrofungin were used as positive controls at 1 mg/mL; 1% DMSO in PBS served as a negative control.

The subject of data set [6] is Escherichia coli VKPM (B-7935). Described as above. The format is cell-based. To be noted: for inhibition at 100 µM: Escherichia coli, read-out: Inhibition of Microbial Growth, E. coli. On the procedure: as §3, §4
In a further data set the test system is Candida albicans KMM 455. Described as above. To be noted: for inhibition at 100 µM: Candida albicans. The format is cell-based. As for the experimental part:
as §3, §4

Data set [7] concerns S. aureus-infected H9c2 cardiomyocytes. Kind of data set: Staphylococcus aureus-induced infection of H9c2 cardiomyocytes (in vitro model of infectious myocarditis, MTT). The format is cell-based, rat. As to conditions: 1 and 10 µM. As for the experimental part:
The H9c2 cells were seeded at concentrations of 3 × 10^3 cell/well. After 24 h, the cell culture media was changed with an S. aureus bacterial suspension (10^2 CFU/mL) prepared in full DMEM culture media. The investigated compounds at concentrations of 1 and 10 µM were added after 1 h and the cells were incubated for 48 h. The S. aureus suspension with compounds at the same concentrations was used as a control. MTT reagent was added to all wells and formazan production was detected with the microplate reader MultiscanFC (ThermoLabsystems Inc., Beverly, MA, USA). The viability of S. aureus-infected cells was calculated as:Viability, relative units = (OD cells+Sa +comp − OD Sa+comp)/(OD cells+Sa − OD Sa)

Where [8] appears, read: human, HepG2 cells (human hepatocarcinoma), read-out: HepG2 IC50 (cytotoxic effect).
Where [9] appears, read: human, HepG2 hepatocarcinoma cells.
Where [10] appears, read: rat, H9c2 cells (normal rat cardiomyocytes), read-out: H9c2 IC50 (cytotoxic effect).
The mark [11] stands for this setting: ATCC21027, compounds tested at 100 µM, read-out: Inhibition of Microbial Growth, S. aureus.
The mark [12] stands for this setting: KMM455, compounds tested at 100 µM, read-out: Inhibition of Microbial Growth, C. albicans.
Setting [13] is: human, read-out: HepG2 Cell Viability.
The mark [14] stands for this setting: rat, read-out: H9c2 Cell Viability.

“Also recorded” adds a separate entry of the source. Read-outs that look alike come from different tables or passages of the source. Bounds are passed on as bounds.

In general, IC50 refers to the midpoint of a concentration-inhibition curve. The viability is a per cent measure of how many cells are alive, often set against a control. For orientation: inhibition means how much of the control response was suppressed.

T1 sequence (P07374 whole entry, looked up): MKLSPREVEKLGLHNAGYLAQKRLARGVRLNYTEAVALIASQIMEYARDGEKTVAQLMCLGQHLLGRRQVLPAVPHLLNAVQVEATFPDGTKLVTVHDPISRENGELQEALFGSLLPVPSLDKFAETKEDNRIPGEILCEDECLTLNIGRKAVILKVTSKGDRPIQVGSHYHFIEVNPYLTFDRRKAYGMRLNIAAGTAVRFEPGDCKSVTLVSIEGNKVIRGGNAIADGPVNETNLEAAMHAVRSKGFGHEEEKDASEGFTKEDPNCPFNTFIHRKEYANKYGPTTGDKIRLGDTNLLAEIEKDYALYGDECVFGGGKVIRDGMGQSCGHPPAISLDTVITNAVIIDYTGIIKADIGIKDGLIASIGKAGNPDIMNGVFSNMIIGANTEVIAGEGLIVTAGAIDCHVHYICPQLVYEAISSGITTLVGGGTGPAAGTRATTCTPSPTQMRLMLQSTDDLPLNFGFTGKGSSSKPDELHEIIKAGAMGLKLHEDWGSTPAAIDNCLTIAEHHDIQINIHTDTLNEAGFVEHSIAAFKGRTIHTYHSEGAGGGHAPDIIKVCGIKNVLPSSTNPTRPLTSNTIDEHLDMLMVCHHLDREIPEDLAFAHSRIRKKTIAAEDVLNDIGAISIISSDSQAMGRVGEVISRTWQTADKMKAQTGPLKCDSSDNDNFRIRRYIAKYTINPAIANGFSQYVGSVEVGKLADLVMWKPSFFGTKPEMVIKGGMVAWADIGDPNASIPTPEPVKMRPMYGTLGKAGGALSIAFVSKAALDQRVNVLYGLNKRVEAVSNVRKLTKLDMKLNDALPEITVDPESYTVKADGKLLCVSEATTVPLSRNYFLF

For `Cc1cc(O)c(O)c2oc3cc(O)cc(O)c3c(=O)c12` [Compound 7, 1,3,5,6-tetrahydroxy-8-methylxanthone], the IC50 was 100 µM in data set [1]; greater than 100 µM in data set [2] (24 h, MTT, read-out: H9c2 IC50 (cytotoxic effect)); greater than 100 µM in data set [4] (24 h, MTT, read-out: HepG2 IC50 (cytotoxic effect)). In addition, the IC50 at 24 h in data set [3] (setting [8]) and in data set [3] (setting [10]) was roughly 100 µM throughout. The viability at 24 h, 10 µM in data set [3] (setting [9]) is 77.1 ± 1.4%; in data set [3] (rat, H9c2 cardiomyocyte cells), 98 ± 0.9%. Moreover, the viability at 24 h, 100 µM in data set [3] (setting [9]) is 57.4 ± 4.2%; in data set [3] (rat, H9c2 cardiomyocyte cells), 52.9 ± 1.5%. In addition, the “decrease of HepG2 cell viability” value in data set [4] is reported as 42.6 µM. For the same compound, the inhibition at 100 µM in data set [5] (setting [11]) is less than 10%; in data set [6] (compounds tested at 100 µM) it was less than 10%; in the data set with Candida albicans KMM 455 (setting [12]), 15.4 ± 2.1%.
`COC1=CC(=O)C[C@@H](C)[C@]12Oc1c(Cl)c(OC)cc(OC)c1C2=O` [Compound 8, griseofulvin, reference compound] displayed a half-inhibitory concentration (IC50) in data set [1] of 10.1 ± 0.6 µM. The “decrease of H9c2 cell viability” value in data set [2] (100 µM) is 28.4%. Besides, the IC50 at 24 h is 77.8 ± 1.3 µM in data set [3] (setting [8]) and greater than 100 µM in data set [3] (setting [10]). Also, the viability at 24 h, 10 µM in data set [3] (setting [9]) was determined as 81 ± 2.1%; in data set [3] (rat, H9c2 cardiomyocyte cells), 89.8 ± 2.7%. The viability at 24 h, 100 µM in data set [3] (setting [9]) amounted to 39.9 ± 0.7%; in data set [3] (rat, H9c2 cardiomyocyte cells) it was 71.6 ± 3.7%. In addition, in data set [4], the “decrease of HepG2 cell viability” value was found to be 60.1%. Besides, the results for the inhibition at 100 µM (in data set [5] (setting [11]); in data set [6] (compounds tested at 100 µM); in the data set with Candida albicans KMM 455 (setting [12])) were 11.5 ± 4.3%, 16.8 ± 4.5% and less than 10%, respectively.
`COC1=CC(=O)C[C@@H](C)[C@]12Oc1c(Cl)c(O)cc(OC)c1C2=O` [Compound 9, 6-O-desmethylgriseofulvin] displayed an IC50 in data set [1] greater than 100 µM. Moreover, in data set [1] (at concentrations of up to 100 µM), the “effect on urease activity” value is listed as “no effect; also recorded: did not show any effect”. The IC50 at 24 h in data set [3] (setting [8]) and in data set [3] (setting [10]) was greater than 100 µM throughout. In addition, the viability at 24 h, 10 µM in data set [3] (setting [9]) was 91.5 ± 6.8%; in data set [3] (rat, H9c2 cardiomyocyte cells) it was 97.4 ± 8.1%. In addition, the viability at 24 h, 100 µM in data set [3] (setting [9]) was 84.2 ± 3.2%; in data set [3] (rat, H9c2 cardiomyocyte cells) it was 92.9 ± 3.7%. Also, the inhibition at 100 µM in data set [5] (setting [11]) is roughly 23%; in data set [6] (compounds tested at 100 µM), roughly 23%; in the data set on Candida albicans KMM 455 (setting [12]), less than 10%. For the same compound, the “Inhibition of Microbial Growth, E. coli” value in data set [6] (compounds tested at 100 µM, 100 µM) is on record as 23.4 ± 1.8%.
For `CC1=CC(=O)OCC1` [Compound 11, 5,6-dihydro-4-methyl-2H-pyran-2-one], the “effect on the viability of S. aureus-infected H9c2 cardiomyocytes” value in data set [7] is reported as “did not show any statistical effect”. The IC50 in data set [1] was found to be 11.4 ± 1 µM. The viability at 24 h, 10 µM in data set [3] (setting [13]) turned out to be 87.5 ± 5.3%; in data set [3] (setting [14]), 95.9 ± 0.6%. Also, the viability at 24 h, 100 µM in data set [3] (setting [13]) came to 76.6 ± 2.4%; in data set [3] (setting [14]), 89 ± 2.9%. Further, the IC50 at 24 h in data set [3] (human, read-out: HepG2 IC50 (cytotoxic effect)) is greater than 100 µM; in data set [3] (rat, read-out: H9c2 IC50 (cytotoxic effect)), greater than 100 µM. Further, the “decrease of HepG2 cell viability” value in data set [4] stood at 23.4%. The inhibition at 100 µM in data set [5] (ATCC21027, read-out: Inhibition of Microbial Growth, S. aureus) was less than 10%; in data set [6] it was less than 10%; with Candida albicans KMM 455 (KMM455, read-out: Inhibition of Microbial Growth, C. albicans) it was less than 10%. Further, the “Inhibition of Microbial Growth, C. albicans” value in the data set with Candida albicans KMM 455 (compounds tested at 100 µM) is given as “did not affect”.

These data come from paper PMC10706121, “Bioactive Polyketides from the Natural Complex of the Sea Urchin-Associated Fungi Penicillium sajarovii KMM 4718 and Aspergillus protuberus KMM 4747” (International Journal of Molecular Sciences, 2023).
